The text below walks through data of ChEMBL document CHEMBL6115006, “Discovery of potent quinone oxidoreductase 2 inhibitors to overcome TRAIL resistance of non-small cell lung cancer” (Eur J Med Chem, 2025).

In assay [1] the target is T1, Ribosyldihydronicotinamide dehydrogenase [quinone] (Homo sapiens, UniProt P16083).
T1 sequence (P16083 whole entry): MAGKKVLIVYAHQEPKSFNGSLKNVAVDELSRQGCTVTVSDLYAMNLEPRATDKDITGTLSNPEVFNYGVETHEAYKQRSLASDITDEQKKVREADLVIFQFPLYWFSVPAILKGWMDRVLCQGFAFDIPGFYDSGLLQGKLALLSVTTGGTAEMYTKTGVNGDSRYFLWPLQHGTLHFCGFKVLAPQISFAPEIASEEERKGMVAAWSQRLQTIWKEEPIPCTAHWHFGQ
Description: Inhibition of recombinant human NQO2 using DCPIP and EPR as substrate measured over 1 min in presence of FAD by spectrophotometric analysis

The subject of the next assay is A549. Put plainly: cells. The note with it: Homo sapiens, A549, 48 h, read-out: INH.

Regarding `COc1cc(-c2ccc3cc(N)ccc3c2)cc(OC)c1OC`, in assay [1], the IC50 was determined as 69 nM. Besides, in the assay with A549, the inhibition at 10 µM was found to be 24.3%. As for `COc1cc(/C=C/c2ccc(N)cc2)cc(OC)c1OC`, the inhibition at 10 µM with A549 came out at 14.7%.

Regarding `Oc1ccc(/C=C/c2cc(O)cc(O)c2)cc1` [RESVERATROL], the inhibition at 10 µM in the assay with A549 came out at 15.4%.

What is called IC50 is the concentration that inhibits the measured activity by half. A lower IC50 goes with inhibition by little substance.
